Measurements as given in US12622953B2, “Vaccines targeting neoepitopes” (Evaxion Biotech A/S, priority 2019, dated 2026).
Entries after “also recorded” stand apart in the source; their conditions may differ.

Tested on: neo-peptide specific CD8+ T cells
Assay: MHC I multimer staining of whole blood after i.p. immunization
Assay type: in vivo, BALB/c mice
Conditions: endpoint day 28, 2.0 μg C22 i.p.
Procedure: 6-8 weeks old BALB/c JrJ femal mice were acquired from Janvier Labs. The mice were acclimated for one week before initiation of the experiment. The mice had ad libitum access to water and standard chow pellets. The experiment was conducted under license 2017-15-0201-01338 from the Danish Animal Experimentation Inspectorate in accordance with the Danish Animal Experimentation Act, which is stricter and therefore fully compliant with the European directive (2010/63/EU). The mice were ear tagged to allow for identification of individuals.
To avoid “cage effects” all treatment groups were represented in each cage. Mice in groups 1, 2, 3 and 4 (the cluster immunization groups) were intraperitoneally (i.p.) immunized at day 0, 1, 2, 3, 7, 14 and 21 with 0.4, 2.0, 10.0 and 50.0 μg of C22 admixed with CAF09b, respectively. Corresponding groups (5, 6, 7 and 8) were vaccinated according to a traditional prime-boost strategy on days 0, 14 and 21 with solutions identical to what group 1, 2, 3 and 4 received. Dosing volumes for the mice were 200 μl for all vaccines.
The C22 peptide was synthesised by GenScript and aliquoted into 0.8 mg portions as a lyophilized product. The peptide was solubilized in DMSO to a concentration of 10 mg/ml by adding 80 μl DMSO to each aliquot. The peptide stock was then diluted 10 times in sterile water (80 μl peptide stock+720 μl sterile water). […]

QIETQQRKFKASRASILSEMKMLKEKR (listed as Mus musculus) [Peptide C22]
MHC:C22 positive CD8+ T cells in blood (cluster primed): low-frequency MHC:C22 positive CD8+ T cells were detected; also recorded: small increase
neo-peptide specific CD8+ cells in blood (standard prime-boost schedule): hardly any
